# System: FLUV (A/WSN/33)
# Format: cell-based, influenza A/WSN/33
smiles,measurement,value
CCOC(=O)C1=C[C@@H](OC(CC)CC)[C@H](NC(C)=O)[C@@H](N)C1 [Oseltamivir],activity against FLUV after 7 passages with compound (resistance development),lost activity by passage 7
